In brackets after ≈: the same amount, converted by molar mass.
Tested on: up to 32 different microorganisms
Assay: in vitro antibacterial activity (MIC), agar dilution on Brain Heart Infusion (BHI) agar with Steers replicator
Assay type: cell-based
Settings: unit assumed
Summary of the method: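 Up to 32 strains were replicator-inoculated (1:100, or 1:10 for Micrococcus and Streptococcus) onto BHI agar plates holding serial compound dilutions and kept 20-24 h at 35-37° C. Plates were read visually against drug-free growth controls, with erythromycin A run alongside; MIC was the lowest concentration giving no growth, slight haze or sparse colonies.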

[1] = Candida albicans CCH 442 (code TT)
[2] = Enterococcus faecism ATCC 8043 (code II)
[3] = Escherichia coli DC-2 (code SS)
[4] = Escherichia coli JUHL (code QQ)
[5] = Haemophilis influenzae DILL AMP R (code WW)
[6] = Micrococcus luteus ATCC 4698 (code PP)
[7] = Micrococcus luteus ATCC 9341 (code OO)
[8] = Nocardia Asteroides ATCC9970 (code VV)
[9] = Staphylococcus aureus 1775 (code GG)
[10] = Staphylococcus aureus A5177 (code BB)
[11] = Staphylococcus aureus A-5278 (code CC)
[12] = Staphylococcus aureus ATCC 6538P (code AA)
[13] = Staphylococcus aureus CMX 553 (code FF)
[14] = Staphylococcus aureus CMX 642A (code DD)
[15] = Staphylococcus aureus NCTC10649M (code EE)
[16] = Staphylococcus epidermidis 3519 (code HH)
[17] = Streptococcus Pneumonia 5649 (code ZZA)
[18] = Streptococcus Pneumonia 5979 (code ZZ)
[19] = Streptococcus Pneumonia ATCC6303 (code XX)
[20] = Streptococcus agalactiae CMX 508 (code KK)
[21] = Streptococcus bovis A-5169 (code JJ)
[22] = Streptococcus pyogenes 930 (code MM)
[23] = Streptococcus pyogenes EES61 (code LL)
[24] = Streptococcus pyogenes PIU 2548 (code NN)
[25] = Mycobacterium smegmatis ATCC 114 (code UU)
[26] = Streptococcus Pneumonia GYR 1171 (code YY)

CCC1OC(=O)C(C)C(=O)C(C)C(OC2OC(C)CC(N(C)C)C2O)C(C)(OCC=Cc2cc3nccnc3cc2[N+](=O)[O-])CC(C)C(=O)C(C)C2NC(=O)OC12C (stereo not shown) [Example 200, R is —CH2CH═CH-(7-nitro-6-quinoxalinyl)]
MIC (organism code AA): 0.1 µg/mL (≈ 0.123 µM)
MIC (organism code BB): 0.1 µg/mL (≈ 0.123 µM)
MIC (organism code CC): > 100 µg/mL
MIC (organism code DD): 0.1 µg/mL (≈ 0.123 µM)
MIC (organism code EE): 0.1 µg/mL (≈ 0.123 µM)
MIC (organism code FF): 0.1 µg/mL (≈ 0.123 µM)
MIC (organism code GG): > 100 µg/mL
MIC (organism code HH): 0.1 µg/mL (≈ 0.123 µM)
MIC (organism code II): 0.02 µg/mL (≈ 0.0246 µM)
MIC (organism code JJ): 0.01 µg/mL (≈ 0.0123 µM)
MIC (organism code KK): 0.02 µg/mL (≈ 0.0246 µM)
MIC (organism code MM): 50 µg/mL (≈ 61.6 µM)
MIC (organism code NN): 0.2 µg/mL (≈ 0.246 µM)
MIC (organism code OO): 0.01 µg/mL (≈ 0.0123 µM)
MIC (organism code PP): 0.2 µg/mL (≈ 0.246 µM)
MIC (organism code QQ): 50 µg/mL (≈ 61.6 µM)
MIC (organism code RR): 0.39 µg/mL (≈ 0.48 µM)
MIC (organism code SS): 12.5 µg/mL (≈ 15.4 µM)
MIC (organism code TT): > 100 µg/mL
MIC (organism code UU): 0.78 µg/mL (≈ 0.961 µM)
MIC (organism code VV): 0.1 µg/mL (≈ 0.123 µM)
MIC (organism code WW): 2 µg/mL (≈ 2.46 µM)
MIC (organism code XX): ≤ 0.004 µg/mL
MIC (organism code YY): ≤ 0.004 µg/mL
MIC (organism code ZZ): > 128 µg/mL
MIC (organism code ZZA): 0.25 µg/mL (≈ 0.308 µM)

CC[C@H]1OC(=O)[C@H](C)C(=O)[C@H](C)[C@@H](O[C@@H]2O[C@H](C)C[C@H](N(C)C)[C@H]2O)[C@@](C)(OCCNCc2ccncc2)C[C@@H](C)C(=O)[C@H](C)[C@@H](O)[C@]1(C)O [Example 12, Compound of Formula (VIII): X is O, R is —CH2CH2NHCH2-(4-pyridyl)]
MIC [1]: > 100 µg/mL
MIC [2]: 1.56 µg/mL
MIC [3]: > 100 µg/mL
MIC [4]: > 100 µg/mL
MIC (Escherichia coli SS (code RR)): 0.39 µg/mL
MIC [5]: 32 µg/mL
MIC [6]: 0.78 µg/mL
MIC [7]: 0.39 µg/mL
MIC [8]: 0.39 µg/mL
MIC [9]: > 100 µg/mL
MIC [10]: 3.1 µg/mL
MIC [11]: > 100 µg/mL
MIC [12]: 6.2 µg/mL
MIC [13]: 6.2 µg/mL
MIC [14]: 6.2 µg/mL
MIC [15]: 6.2 µg/mL
MIC [16]: 12.5 µg/mL
MIC [17]: 2 µg/mL
MIC [18]: > 128 µg/mL
MIC [19]: 0.25 µg/mL
MIC [20]: 0.78 µg/mL
MIC [21]: 0.2 µg/mL
MIC [22]: > 100 µg/mL
MIC [23]: 0.39 µg/mL
MIC [24]: 1.56 µg/mL

CC[C@H]1OC(=O)[C@H](C)C(=O)[C@H](C)[C@@H](O[C@@H]2O[C@H](C)C[C@H](N(C)C)[C@H]2O)[C@@](C)(OCC=Cc2cnc3ccccc3c2)C[C@@H](C)C(=O)[C@H](C)[C@H]2N(C)C(=O)O[C@]12C [Example 180, Compound of Formula (IX): L is CO, T is N(CH3), R is —CH2CH═CH-(3-quinolyl)]
MIC [1]: > 100 µg/mL
MIC [2]: 0.05 µg/mL
MIC [3]: > 100 µg/mL
MIC [4]: > 100 µg/mL
MIC (Escherichia coli SS (code RR)): 0.2 µg/mL
MIC [5]: 4 µg/mL
MIC [6]: 0.1 µg/mL
MIC [7]: 0.02 µg/mL
MIC [25]: 0.2 µg/mL
MIC [8]: 0.1 µg/mL
MIC [9]: > 100 µg/mL
MIC [10]: 0.1 µg/mL
MIC [11]: > 100 µg/mL
MIC [12]: 0.1 µg/mL
MIC [13]: 0.1 µg/mL
MIC [14]: 0.1 µg/mL
MIC [15]: 0.1 µg/mL
MIC [16]: 0.1 µg/mL
MIC [17]: 0.25 µg/mL
MIC [18]: 128 µg/mL
MIC [19]: 0.03 µg/mL
MIC [26]: 0.03 µg/mL
MIC [20]: 0.05 µg/mL
MIC [21]: 0.02 µg/mL
MIC [22]: 25 µg/mL
MIC [23]: 0.02 µg/mL
MIC [24]: 0.2 µg/mL

CC[C@H]1OC(=O)[C@H](C)C(=O)[C@H](C)[C@@H](O[C@@H]2O[C@H](C)C[C@H](N(C)C)[C@H]2O)[C@@](C)(OCCNCCc2ccccc2)C[C@@H](C)C(=O)[C@H](C)[C@H]2NC(=O)O[C@@]21C [Example 222, Compound of Formula (IX): L is CO, T is NH, R is —CH2CH2NHCH2CH2Phenyl]
MIC (organism code AA): 0.2 µg/mL
MIC (organism code BB): 0.1 µg/mL
MIC (organism code CC): > 100 µg/mL
MIC (organism code DD): 0.39 µg/mL
MIC (organism code EE): 0.2 µg/mL
MIC (organism code FF): 0.2 µg/mL
MIC (organism code GG): > 100 µg/mL
MIC (organism code HH): 0.2 µg/mL
MIC (organism code II): 0.02 µg/mL
MIC (organism code JJ): ≤ 0.005 µg/mL
MIC (organism code KK): 0.02 µg/mL
MIC (organism code LL): ≤ 0.005 µg/mL
MIC (organism code MM): > 100 µg/mL
MIC (organism code NN): 0.39 µg/mL
MIC (organism code OO): 0.01 µg/mL
MIC (organism code PP): 0.2 µg/mL
MIC (organism code QQ): 25 µg/mL
MIC (organism code RR): 0.1 µg/mL
MIC (organism code SS): 25 µg/mL
MIC (organism code TT): > 100 µg/mL
MIC (organism code UU): 0.78 µg/mL
MIC (organism code VV): 0.2 µg/mL
MIC (organism code WW): 4 µg/mL
MIC (organism code XX): 0.03 µg/mL
MIC (organism code YY): 0.06 µg/mL
MIC (organism code ZZ): > 128 µg/mL
MIC (organism code ZZA): 2 µg/mL

CC[C@H]1OC(=O)[C@H](C)C(=O)[C@H](C)[C@@H](O[C@@H]2O[C@H](C)C[C@H](N(C)C)[C@H]2O)[C@@](C)(OCC=NOc2ccccc2)C[C@@H](C)C(=O)[C@H](C)[C@H]2NC(=O)O[C@@]21C [Example 228, Compound of Formula (IX): L is CO, T is NH, R is —CH2CH═NO(phenyl)]
MIC (organism code AA): 0.39 µg/mL
MIC (organism code BB): 0.78 µg/mL
MIC (organism code CC): > 100 µg/mL
MIC (organism code DD): 0.78 µg/mL
MIC (organism code EE): 0.78 µg/mL
MIC (organism code FF): 0.78 µg/mL
MIC (organism code GG): > 100 µg/mL
MIC (organism code HH): 0.78 µg/mL
MIC (organism code II): 0.1 µg/mL
MIC (organism code JJ): 0.02 µg/mL
MIC (organism code KK): ≤ 0.005 µg/mL
MIC (organism code LL): 0.01 µg/mL
MIC (organism code MM): 25 µg/mL
MIC (organism code NN): 0.78 µg/mL
MIC (organism code OO): 0.2 µg/mL
MIC (organism code PP): 0.39 µg/mL
MIC (organism code QQ): > 100 µg/mL
MIC (organism code RR): 0.78 µg/mL
MIC (organism code SS): > 100 µg/mL
MIC (organism code TT): > 100 µg/mL
MIC (organism code UU): 3.1 µg/mL
MIC (organism code VV): 0.78 µg/mL
MIC (organism code WW): 8 µg/mL
MIC (organism code XX): 0.125 µg/mL
MIC (organism code YY): 0.125 µg/mL
MIC (organism code ZZ): > 128 µg/mL
MIC (organism code ZZA): 1 µg/mL

CCC1OC(=O)C(C)C(=O)C(C)C(OC2OC(C)CC(N(C)C)C2O)C(C)(OCC=Cc2cncc3ccccc23)CC(C)C(=O)C(C)C2NC(=O)OC12C (stereo not shown) [Example 187, R is —CH2CH═CH-(4-isoquinolinyl)]
MIC [1]: > 100 µg/mL
MIC [2]: 0.02 µg/mL (≈ 0.0261 µM)
MIC [3]: > 100 µg/mL
MIC [4]: 100 µg/mL (≈ 131 µM)
MIC (Escherichia coli SS (code RR)): 0.39 µg/mL (≈ 0.509 µM)
MIC [5]: 2 µg/mL (≈ 2.61 µM)
MIC [6]: 0.02 µg/mL (≈ 0.0261 µM)
MIC [7]: 0.02 µg/mL (≈ 0.0261 µM)
MIC [25]: 0.78 µg/mL (≈ 1.02 µM)
MIC [8]: 0.1 µg/mL (≈ 0.131 µM)
MIC [9]: > 100 µg/mL
MIC [10]: 0.1 µg/mL (≈ 0.131 µM)
MIC [11]: > 100 µg/mL
MIC [12]: 0.2 µg/mL (≈ 0.261 µM)
MIC [13]: 0.1 µg/mL (≈ 0.131 µM)
MIC [14]: 0.1 µg/mL (≈ 0.131 µM)
MIC [15]: 0.1 µg/mL (≈ 0.131 µM)
MIC [16]: 0.1 µg/mL (≈ 0.131 µM)
MIC [17]: 0.25 µg/mL (≈ 0.326 µM)
MIC [18]: > 16 µg/mL
MIC [19]: 0.03 µg/mL (≈ 0.0392 µM)
MIC [26]: 0.03 µg/mL (≈ 0.0392 µM)
MIC [20]: 0.02 µg/mL (≈ 0.0261 µM)
MIC [21]: ≤ 0.005 µg/mL
MIC [22]: 25 µg/mL (≈ 32.6 µM)
MIC [23]: 0.01 µg/mL (≈ 0.0131 µM)
MIC [24]: 0.1 µg/mL (≈ 0.131 µM)

CCC1OC(=O)C(C)C(=O)C(C)C(OC2OC(C)CC(N(C)C)C2O)C(C)(OCC=Cc2ccc3ncccc3c2)CC(C)C(=O)C(C)C2NC(=O)OC12C (stereo not shown) [Example 194, R is —CH2CH═CH-(6-quinolyl)]
MIC [1]: > 100 µg/mL
MIC [2]: 0.02 µg/mL (≈ 0.0261 µM)
MIC [3]: 100 µg/mL (≈ 131 µM)
MIC [4]: 50 µg/mL (≈ 65.3 µM)
MIC (Escherichia coli SS (code RR)): 0.39 µg/mL (≈ 0.509 µM)
MIC [6]: 0.1 µg/mL (≈ 0.131 µM)
MIC [7]: 0.01 µg/mL (≈ 0.0131 µM)
MIC [25]: 0.78 µg/mL (≈ 1.02 µM)
MIC [8]: ≤ 0.005 µg/mL
MIC [9]: > 100 µg/mL
MIC [10]: 0.05 µg/mL (≈ 0.0653 µM)
MIC [11]: > 100 µg/mL
MIC [12]: 0.05 µg/mL (≈ 0.0653 µM)
MIC [13]: 0.05 µg/mL (≈ 0.0653 µM)
MIC [14]: 0.05 µg/mL (≈ 0.0653 µM)
MIC [15]: 0.1 µg/mL (≈ 0.131 µM)
MIC [16]: 0.05 µg/mL (≈ 0.0653 µM)
MIC [20]: 0.01 µg/mL (≈ 0.0131 µM)
MIC [21]: ≤ 0.005 µg/mL
MIC [22]: 0.78 µg/mL (≈ 1.02 µM)
MIC [23]: 0.01 µg/mL (≈ 0.0131 µM)
MIC [24]: 0.05 µg/mL (≈ 0.0653 µM)
